Results taken from patent US20170291905A1, “ARGININE […] INHIBITORS AND USES THEREOF” (Epizyme, Inc., priority 2014, published 2017).

Tests used:
[1] = biological target: T1, full-length human PRMT1 isoform 1 (GST-tagged) (Homo sapiens, UniProt Q99873); experiment: PRMT1 biochemical assay (3H-SAM Flashplate, histone H4 36-50 peptide); settings: 0.5 nM PRMT1, 30 min preincubation, 20 nM peptide
T1 construct: GST-tagged PRMT1 was eluted with 50 mM Tris, 2 mM glutathione, pH 7.8, dialysed in buffer A and concentrated; made in house; host or cells: High Five insect cells (baculovirus)
T1 sequence (Q99873 with tags, fused parts or gaps): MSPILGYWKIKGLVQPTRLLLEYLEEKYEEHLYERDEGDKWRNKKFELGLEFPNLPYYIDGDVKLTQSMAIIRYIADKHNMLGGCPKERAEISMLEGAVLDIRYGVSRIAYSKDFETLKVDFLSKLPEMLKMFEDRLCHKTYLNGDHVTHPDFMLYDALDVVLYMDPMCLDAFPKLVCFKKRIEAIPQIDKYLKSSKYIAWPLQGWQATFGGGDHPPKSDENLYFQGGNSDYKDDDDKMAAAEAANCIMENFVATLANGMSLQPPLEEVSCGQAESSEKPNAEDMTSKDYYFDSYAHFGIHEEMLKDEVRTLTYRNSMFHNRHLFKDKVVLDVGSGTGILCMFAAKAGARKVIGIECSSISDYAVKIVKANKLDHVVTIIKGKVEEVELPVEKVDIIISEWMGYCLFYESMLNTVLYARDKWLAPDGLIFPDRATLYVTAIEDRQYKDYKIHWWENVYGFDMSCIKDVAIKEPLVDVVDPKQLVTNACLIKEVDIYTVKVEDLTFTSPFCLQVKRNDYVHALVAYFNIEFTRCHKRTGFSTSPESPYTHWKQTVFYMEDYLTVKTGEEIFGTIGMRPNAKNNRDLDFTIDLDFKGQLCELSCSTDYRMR
Excerpt: (§1) S-adenosylmethionine (SAM), S-adenosylhomocysteine (SAH), bicine, Tween20, dimethylsulfoxide (DMSO), bovine skin gelatin (BSG), and Tris(2-carboxyethyl)phosphine hydrochloride solution (TCEP) were purchased from Sigma-Aldrich at the highest level of purity possible. ^3H-SAM was purchase from American Radiolabeled Chemicals with a specific activity of 80 Ci/mmol. 384-well streptavidin Flashplates were purchased from PerkinElmer.
Peptide representative of human histone H4 residues 36-50 was synthesized with an N-terminal linker-affinity tag motif and a C-terminal amide cap by 21st Century Biochemicals. The peptide was purified by high-performance liquid chromatography (HPLC) to greater than 95% purity and confirmed by liquid chromatography mass spectrometry (LC-MS). The sequence was Biot-Ahx-[…]-amide (SEQ ID NO.:1).
Full-length human PRMT1 isoform 1 (NM_001536.5) transcript clone was amplified from an HEK 293 cDNA library, incorporating flanking 5′ sequence encoding a FLAG tag ([…]) (SEQ ID NO.:2) fused directly to Met 1 of PRMT1. The amplified gene was subcloned into pFastBacI (Life Technologies) modified to encode an N-terminal GST tag and a TEV cleavage sequence
Recombinant baculovirus were generated according to Bac-to-Bac kit instructions (Life Technologies). Protein over-expression was accomplished by infecting exponentially growing High Five insect cell culture at 1.5×10^6 cell/ml with 1:100 ratio of virus. Infections were carried out at 27° C. for 48 hours, harvested by centrifugation, and stored at −80° C. for purification.
GST-tagged PRMT1 was eluted with 50 mM Tris, 2 mM glutathione, pH 7.8, dialysed in buffer A and concentrated to 1 mg/mL. The purity of recovered protein was 73%. Reference: Wasilko, D. J. and S. E. Lee: “TIPS: titerless infected-cells preservation and scale-up” Bioprocess J., 5 (2006), pp. 29-32.
General Procedure for PRMT1 Enzyme Assays on Peptide Substrates.
The assays were all performed in a buffer consisting of 20 mM Bicine (pH=7.6), 1 mM TCEP, 0.005% BSG, and 0.002% Tween 20, prepared on the day of use. Compounds in 100% DMSO (1 ul) were spotted into a polypropylene 384-well V-bottom plates (Greiner) using a Platemate Plus outfitted with a 384-channel head (Thermo Scientific). DMSO (1 ul) was added to Columns 11, 12, 23, 24, rows A-H for the maximum signal control and 1 ul of SAH, a known product and inhibitor of PRMT1, was added to columns 11, 12, 23, 24, rows I-P for the minimum signal control. A cocktail (40 ul) containing the PRMT1 enzyme was added by Multidrop Combi (Thermo-Fisher). The compounds were allowed to incubate with PRMT1 for 30 min at room temperature, then a cocktail (10 ul) containing SAM and peptide was added to initiate the reaction (final volume=51 ul). The final concentrations of the components were as follows: PRMT1 was 0.5 nM, ^3H-SAM was 200 nM, non-radiolabeled SAM was 1.5 uM, peptide was 20 nM, SAH in the minimum signal control wells was 1 mM, and the DMSO concentration was 2%. The assays were stopped by the addition of non-radiolabeled SAM (10 ul) to a final concentration of 300 uM, which dilutes the ^3H-SAM to a level where its incorporation into the peptide substrate is no longer detectable. 50 ul of the reaction in the 384-well polypropylene plate was then transferred to a 384-well Flashplate and the biotinylated peptides were allowed to bind to the streptavidin surface for at least 1 hour before being washed once with 0.1% Tween20 in a Biotek ELx405 plate washer. The plates were then read in a PerkinElmer TopCount plate reader to measure the quantity of ^3H-labeled peptide bound to the Flashplate surface, measured as disintegrations per minute (dpm) or alternatively, referred to as counts per minute (cpm).
(§2) Where dpm=disintegrations per minute, cmpd=signal in assay well, and min and max are the respective minimum and maximum signal controls. […]

[2] = biological target: full-length human PRMT6 (Flag- and His-tagged) (Homo sapiens, UniProt Q96LA8); experiment: PRMT6 biochemical assay (3H-SAM Flashplate, histone H4 36-50 K44me1 peptide); settings: 1 nM PRMT6, 30 min preincubation, 75 nM peptide
Chain of full-length human PRMT6 (Flag- and His-tagged) (Q96LA8 with tags, fused parts or gaps): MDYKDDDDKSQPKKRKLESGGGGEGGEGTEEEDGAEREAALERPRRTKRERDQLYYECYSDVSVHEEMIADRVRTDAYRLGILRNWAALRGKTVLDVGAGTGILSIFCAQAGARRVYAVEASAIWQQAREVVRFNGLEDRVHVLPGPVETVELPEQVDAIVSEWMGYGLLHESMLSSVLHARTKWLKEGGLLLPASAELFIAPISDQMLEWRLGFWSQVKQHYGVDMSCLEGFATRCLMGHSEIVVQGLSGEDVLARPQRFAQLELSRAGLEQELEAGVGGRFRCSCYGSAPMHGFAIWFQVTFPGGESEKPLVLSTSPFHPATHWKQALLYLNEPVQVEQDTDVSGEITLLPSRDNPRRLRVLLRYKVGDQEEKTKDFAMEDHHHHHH
Excerpt: as §1, with “(BSG), sodium butyrate” for “(BSG),”
Peptide representative of human histone H4 residues 36-50 was synthesized with an N-terminal linker-affinity tag motif and a C-terminal amide cap by 21st Century Biochemicals. The peptide was purified by high-performance liquid chromatography (HPLC) to greater than 95% purity and confirmed by liquid chromatography mass spectrometry (LC-MS). The sequence was Biot-Ahx-[…]-amide and contained a monomethylated lysine at position 44 (SEQ ID NO.:5).
Full-length human PRMT6 (NM_018137.2) transcript clone was amplified from an HEK 293 cDNA library, incorporating a flanking 5′ sequence encoding a FLAG tag ([…]) (SEQ ID NO.:6) fused directly to Ser 2 of PRMT6 and a 3′ sequence encoding a hexa His sequence (HHHHHH) (SEQ ID NO.: 17) fused directly to Asp 375. The amplified gene was subcloned into pFastBacMam (Viva Biotech).
Recombinant baculovirus were generated according to Bac-to-Bac kit instructions (Life Technologies). […] Infections were carried out at 37° C. for 48 hours, harvested by centrifugation, and stored at −80° C. for purification.
Column was washed with 20 mM imidazole in the same buffer and Flag-PRMT6-His was eluted with 150 mM imidazole. Pooled fractions were dialysed against buffer Ni-A and further purified by anti-flag M2 affinity chromatography. Flag-PRMT6-His was eluted with 200 ug/ml FLAG peptide in the same buffer. Pooled fractions were dialysed in 20 mM Tris, 150 mM NaCl, 10% glycerol and 5 mM β-mercaptoethanol, pH 7.8. The purity of recovered protein was 95%.
General Procedure for PRMT6 Enzyme Assays on Peptide Substrates.
The assays were all performed in a buffer consisting of 20 mM Bicine (pH=7.6), 1 mM TCEP, 0.005% BSG, and 0.002% Tween 20, prepared on the day of use. Compounds in 100% DMSO (1 ul) were spotted into a polypropylene 384-well V-bottom plates (Greiner) using a Platemate Plus outfitted with a 384-channel head (Thermo Scientific). DMSO (1 ul) was added to Columns 11, 12, 23, 24, rows A-H for the maximum signal control and 1 ul of SAH, a known product and inhibitor of PRMT6, was added to columns 11, 12, 23, 24, rows I-P for the minimum signal control. A cocktail (40 ul) containing the PRMT6 enzyme was added by Multidrop Combi (Thermo-Fisher). The compounds were allowed to incubate with PRMT6 for 30 min at room temperature, then a cocktail (10 ul) containing SAM and peptide was added to initiate the reaction (final volume=51 ul). The final concentrations of the components were as follows: PRMT6 was 1 nM, ^3H-SAM was 200 nM, non-radiolabeled SAM was 250 nM, peptide was 75 nM, SAH in the minimum signal control wells was 1 mM, and the DMSO concentration was 2%. The assays were stopped by the addition of non-radiolabeled SAM (10 ul) to a final concentration of 400 uM, which dilutes the ^3H-SAM to a level where its incorporation into the peptide substrate is no longer detectable. 50 ul of the reaction in the 384-well polypropylene plate was then transferred to a 384-well Flashplate and the biotinylated peptides were allowed to bind to the streptavidin surface for at least 1 hour before being washed once with 0.1% Tween20 in a Biotek ELx405 plate washer. The plates were then read in a PerkinElmer TopCount plate reader to measure the quantity of ^3H-labeled peptide bound to the Flashplate surface, measured as disintegrations per minute (dpm) or alternatively, referred to as counts per minute (cpm).
as §2

Row | SMILES | IC50 [1] | IC50 [2]
1 | CN(CCN)Cc1cn(C)nc1[C@H]1CC[C@@]2(CC1)CC(C)(C)CO2 [compound 55] | 7.28 nM | 191 nM
2 | CN(CCN)Cc1cn(C)nc1[C@H]1CC[C@]2(CC1)CC(C)(C)CO2 [compound 56] | 31 nM | 850 nM
3 | CNCCN(C)Cc1c([C@H]2CC[C@@]3(CC2)CC(C)(C)CO3)nnn1C [compound 53] | 5850 nM | > 10000 nM
4 | CNCCN(C)Cc1c([C@H]2CC[C@]3(CC2)CC(C)(C)CO3)nnn1C [compound 54] | 9310 nM | 9920 nM
